Test results: the NIST ThermoML archive (doi:10.1021/acs.jced.8b00433)

Test: xn = mol fraction of the nth substance listed
Conditions: Gas, Buoyancy - hydrostatic balance with magnetic suspension - one sinker

C [methane] + O=C=O
Conditions | mass density [kg/m3]
313.09 K, 17999 kPa, x2 = 0.2017 | 188.702
313.1 K, 4001 kPa, x2 = 0.8988 | 75.134
313.1 K, 4996 kPa, x2 = 0.3997 | 58.587
313.1 K, 5996 kPa, x2 = 0.7985 | 114.567
313.1 K, 7003 kPa, x2 = 0.7985 | 142.512
313.1 K, 7006 kPa, x2 = 0.6015 | 110.298
313.11 K, 7997 kPa, x2 = 0.7985 | 174.464
313.11 K, 10000 kPa, x2 = 0.6015 | 177.419
313.11 K, 12001 kPa, x2 = 0.0998 | 102.596
313.11 K, 14997 kPa, x2 = 0.3997 | 217.543
313.12 K, 7992 kPa, x2 = 0.8988 | 206.745
313.12 K, 14996 kPa, x2 = 0.8988 | 624.636
313.13 K, 4001 kPa, x2 = 0.0998 | 30.822
313.13 K, 4002 kPa, x2 = 0.6015 | 56.419
313.13 K, 5003 kPa, x2 = 0.8988 | 100.174
313.13 K, 6004 kPa, x2 = 0.6015 | 90.955
313.13 K, 9996 kPa, x2 = 0.7985 | 256.481
313.13 K, 10003 kPa, x2 = 0.0998 | 83.788
313.13 K, 11005 kPa, x2 = 0.3997 | 149.559
313.14 K, 3998 kPa, x2 = 0.3997 | 45.694
313.14 K, 7995 kPa, x2 = 0.6015 | 130.852
313.14 K, 11000 kPa, x2 = 0.0998 | 93.126
313.14 K, 11001 kPa, x2 = 0.2017 | 110.189
313.14 K, 11001 kPa, x2 = 0.6015 | 202.91
313.14 K, 15004 kPa, x2 = 0.7985 | 485.573
313.15 K, 4004 kPa, x2 = 0.7985 | 68.752
313.15 K, 5996 kPa, x2 = 0.3997 | 72.099
313.15 K, 11997 kPa, x2 = 0.8988 | 506.067
313.16 K, 5003 kPa, x2 = 0.7985 | 90.396
313.16 K, 6996 kPa, x2 = 0.3997 | 86.285
313.16 K, 18004 kPa, x2 = 0.6015 | 375.856
313.17 K, 3002 kPa, x2 = 0.0998 | 22.748
313.17 K, 5002 kPa, x2 = 0.6015 | 73.052
313.17 K, 5997 kPa, x2 = 0.8988 | 128.664
313.17 K, 8998 kPa, x2 = 0.6015 | 153.28
313.17 K, 15002 kPa, x2 = 0.0998 | 130.663
313.17 K, 18004 kPa, x2 = 0.0998 | 157.443
313.17 K, 18005 kPa, x2 = 0.7985 | 560.943
313.18 K, 8998 kPa, x2 = 0.8988 | 265.242
313.18 K, 9004 kPa, x2 = 0.2017 | 87.631
313.18 K, 11998 kPa, x2 = 0.6015 | 229.134
313.18 K, 14996 kPa, x2 = 0.2017 | 155.927
313.19 K, 5002 kPa, x2 = 0.0998 | 39.114
313.19 K, 6000 kPa, x2 = 0.0998 | 47.652
313.19 K, 8998 kPa, x2 = 0.3997 | 116.64
313.19 K, 9995 kPa, x2 = 0.3997 | 132.712
313.19 K, 10993 kPa, x2 = 0.7985 | 305.994
313.19 K, 11992 kPa, x2 = 0.3997 | 166.169
313.2 K, 3998 kPa, x2 = 0.2017 | 35.711
313.2 K, 9001 kPa, x2 = 0.0998 | 74.487
313.2 K, 9003 kPa, x2 = 0.7985 | 212.239
313.2 K, 10990 kPa, x2 = 0.8988 | 432.06
313.21 K, 5000 kPa, x2 = 0.2017 | 45.475
313.21 K, 6999 kPa, x2 = 0.0998 | 56.348
313.21 K, 8000 kPa, x2 = 0.0998 | 65.323
313.21 K, 9999 kPa, x2 = 0.8988 | 344.181
313.21 K, 14995 kPa, x2 = 0.6015 | 308.146
313.21 K, 17995 kPa, x2 = 0.8988 | 683.03
313.21 K, 17997 kPa, x2 = 0.3997 | 264.841
313.22 K, 5999 kPa, x2 = 0.2017 | 55.518
313.22 K, 6997 kPa, x2 = 0.8988 | 163.201
313.22 K, 8000 kPa, x2 = 0.2017 | 76.608
313.22 K, 11998 kPa, x2 = 0.2017 | 121.576
313.22 K, 12000 kPa, x2 = 0.7985 | 357.778
313.23 K, 7005 kPa, x2 = 0.2017 | 65.96
313.24 K, 10003 kPa, x2 = 0.2017 | 98.786
313.27 K, 8000 kPa, x2 = 0.3997 | 101.088
333.06 K, 10002 kPa, x2 = 0.2017 | 88.824
333.07 K, 4003 kPa, x2 = 0.7985 | 62.105
333.07 K, 11999 kPa, x2 = 0.3997 | 144.496
333.07 K, 17998 kPa, x2 = 0.2017 | 166.841
333.08 K, 4997 kPa, x2 = 0.6015 | 65.944
333.08 K, 5002 kPa, x2 = 0.3997 | 53.475
333.08 K, 8999 kPa, x2 = 0.2017 | 79.049
333.08 K, 9003 kPa, x2 = 0.3997 | 103.555
333.08 K, 15000 kPa, x2 = 0.8988 | 456.324
333.1 K, 5000 kPa, x2 = 0.0998 | 36.091
333.11 K, 6004 kPa, x2 = 0.6015 | 81.338
333.11 K, 11001 kPa, x2 = 0.2017 | 98.605
333.12 K, 4001 kPa, x2 = 0.6015 | 51.39
333.12 K, 4003 kPa, x2 = 0.2017 | 33.068
333.12 K, 6995 kPa, x2 = 0.3997 | 77.606
333.12 K, 9995 kPa, x2 = 0.3997 | 116.802
333.12 K, 14999 kPa, x2 = 0.0998 | 116.773
333.12 K, 18006 kPa, x2 = 0.6015 | 310.346
333.13 K, 5006 kPa, x2 = 0.8988 | 88.521
333.13 K, 5996 kPa, x2 = 0.2017 | 50.919
333.13 K, 7000 kPa, x2 = 0.0998 | 51.598
333.13 K, 10993 kPa, x2 = 0.8988 | 274.201
333.13 K, 12000 kPa, x2 = 0.6015 | 189.959
333.13 K, 14996 kPa, x2 = 0.3997 | 186.621
333.14 K, 4996 kPa, x2 = 0.2017 | 41.851
333.14 K, 7998 kPa, x2 = 0.6015 | 114.282
333.14 K, 10995 kPa, x2 = 0.6015 | 169.869
333.14 K, 11002 kPa, x2 = 0.3997 | 130.586
333.14 K, 11997 kPa, x2 = 0.8988 | 319.541
333.14 K, 14998 kPa, x2 = 0.7985 | 360.976
333.14 K, 18001 kPa, x2 = 0.0998 | 140.51
333.15 K, 6001 kPa, x2 = 0.0998 | 43.781
333.15 K, 8994 kPa, x2 = 0.6015 | 131.934
333.15 K, 11999 kPa, x2 = 0.0998 | 92.187
333.15 K, 14994 kPa, x2 = 0.2017 | 138.03
333.15 K, 14999 kPa, x2 = 0.6015 | 251.317
333.16 K, 7002 kPa, x2 = 0.6015 | 97.409
333.16 K, 11003 kPa, x2 = 0.0998 | 83.984
333.16 K, 12001 kPa, x2 = 0.2017 | 108.442
333.16 K, 18000 kPa, x2 = 0.7985 | 447.149
333.16 K, 18001 kPa, x2 = 0.3997 | 227.522
333.17 K, 4004 kPa, x2 = 0.3997 | 41.983
333.17 K, 4007 kPa, x2 = 0.8988 | 67.864
333.17 K, 5002 kPa, x2 = 0.7985 | 80.565
333.17 K, 7997 kPa, x2 = 0.8988 | 164.576
333.18 K, 9007 kPa, x2 = 0.7985 | 170.905
333.18 K, 9999 kPa, x2 = 0.0998 | 75.751
333.18 K, 12003 kPa, x2 = 0.7985 | 260.729
333.19 K, 7001 kPa, x2 = 0.8988 | 136.146
333.19 K, 8000 kPa, x2 = 0.0998 | 59.549
333.19 K, 8996 kPa, x2 = 0.8988 | 196.344
333.19 K, 8999 kPa, x2 = 0.0998 | 67.601
333.19 K, 9999 kPa, x2 = 0.7985 | 198.595
333.19 K, 10001 kPa, x2 = 0.6015 | 150.602
333.19 K, 11002 kPa, x2 = 0.7985 | 228.687
333.2 K, 5991 kPa, x2 = 0.7985 | 100.196
333.2 K, 6008 kPa, x2 = 0.3997 | 65.434
333.2 K, 7994 kPa, x2 = 0.7985 | 145.123
333.2 K, 8002 kPa, x2 = 0.2017 | 69.464
333.21 K, 9996 kPa, x2 = 0.8988 | 232.812
333.21 K, 18000 kPa, x2 = 0.8988 | 552.634
333.22 K, 6999 kPa, x2 = 0.2017 | 60.167
333.22 K, 7005 kPa, x2 = 0.7985 | 121.973
333.22 K, 7995 kPa, x2 = 0.3997 | 90.268
333.24 K, 6001 kPa, x2 = 0.8988 | 110.997
353.02 K, 2999 kPa, x2 = 0.0998 | 19.722
353.03 K, 10001 kPa, x2 = 0.6015 | 135.164
353.05 K, 9004 kPa, x2 = 0.6015 | 119.448
353.08 K, 12003 kPa, x2 = 0.8988 | 250.219
353.08 K, 14998 kPa, x2 = 0.2017 | 125.022
353.09 K, 11999 kPa, x2 = 0.6015 | 167.978
353.09 K, 17992 kPa, x2 = 0.6015 | 269.799
353.1 K, 8995 kPa, x2 = 0.8988 | 165.756
353.1 K, 17997 kPa, x2 = 0.8988 | 437.7
353.11 K, 12000 kPa, x2 = 0.3997 | 129.551
353.11 K, 18006 kPa, x2 = 0.7985 | 362.285
353.12 K, 5997 kPa, x2 = 0.8988 | 99.468
353.12 K, 6004 kPa, x2 = 0.6015 | 74.991
353.12 K, 18000 kPa, x2 = 0.3997 | 201.731
353.13 K, 4000 kPa, x2 = 0.8988 | 61.9
353.13 K, 6004 kPa, x2 = 0.3997 | 60.111
353.13 K, 14997 kPa, x2 = 0.3997 | 165.894
353.14 K, 9003 kPa, x2 = 0.0998 | 62.172
353.14 K, 14999 kPa, x2 = 0.6015 | 219.076
353.15 K, 6003 kPa, x2 = 0.7985 | 90.263
353.15 K, 14995 kPa, x2 = 0.0998 | 106.161
353.15 K, 14999 kPa, x2 = 0.8988 | 346.055
353.16 K, 3001 kPa, x2 = 0.6015 | 35.135
353.16 K, 15004 kPa, x2 = 0.7985 | 288.885
353.17 K, 9004 kPa, x2 = 0.3997 | 93.855
353.18 K, 3996 kPa, x2 = 0.7985 | 56.892
353.18 K, 4002 kPa, x2 = 0.2017 | 30.584
353.18 K, 4004 kPa, x2 = 0.3997 | 38.873
353.18 K, 11994 kPa, x2 = 0.7985 | 214.517
353.22 K, 8998 kPa, x2 = 0.7985 | 147.521
353.22 K, 17999 kPa, x2 = 0.0998 | 127.527
353.23 K, 6000 kPa, x2 = 0.0998 | 40.53
353.24 K, 11994 kPa, x2 = 0.0998 | 84.225
353.26 K, 6007 kPa, x2 = 0.2017 | 46.942
353.27 K, 9000 kPa, x2 = 0.2017 | 72.326
353.28 K, 12001 kPa, x2 = 0.2017 | 98.585
353.37 K, 17994 kPa, x2 = 0.2017 | 150.552
